# In US9242970B2 (ACTELION PHARMACEUTICALS LTD., priority 2010, dated 2016):
# pIC50: −log10 of the molar value. Where two headings read alike, the source gives them in different places.
# Tests used:
# [1] = biological target: human orexin-2 receptor (Homo sapiens (Human), UniProt O43614); assay: In vitro assay: intracellular calcium measurements (FLIPR), antagonistic activity; assay type: cell-based; details: read-out: IC50 OX2
# Experimental: (§1) In Vitro Assay: Intracellular Calcium Measurements:
# (§2) Chinese hamster ovary (CHO) cells expressing the human orexin-1 receptor and the human orexin-2 receptor, respectively, are grown in culture medium (Ham F-12 with L-Glutamine) containing 300 µg/ml G418, 100 U/ml penicillin, 100 µg/ml streptomycin and 10% heat inactivated fetal calf serum (FCS). The cells are seeded at 20,000 cells/well into 384-well black clear bottom sterile plates (Greiner). The seeded plates are incubated overnight at 37° C. in 5% CO2.
# (§3) Fluorescence is measured for each well at 1 second intervals, and the height of each fluorescence peak is compared to the height of the fluorescence peak induced by 3 nM orexin-A with vehicle in place of antagonist. […] Optimized conditions were achieved by adjustment of pipetting speed and cell splitting regime. The calculated IC50 values may fluctuate depending on the daily cellular assay performance. Fluctuations of this kind are known to those skilled in the art.
# [2] = biological target: human orexin-1 receptor (Homo sapiens (Human), UniProt O43613); assay: as above; assay type: cell-based; details: CHO cells, 3 nM orexin-A, marked values are geometric means of n = 2-6, read-out: IC50 OX1
# Experimental: as §1, §2, §3
# [3] = CHO cells, 3 nM orexin-A, compound incubation time of 10 min, marked values are geometric means of n = 2-6
# [4] = compound incubation time of 10 min
# [5] = CHO cells, 3 nM orexin-A, compound incubation 120 min, marked values are geometric means of n = 2-6
# Sequence of human orexin-2 receptor (O43614 whole entry): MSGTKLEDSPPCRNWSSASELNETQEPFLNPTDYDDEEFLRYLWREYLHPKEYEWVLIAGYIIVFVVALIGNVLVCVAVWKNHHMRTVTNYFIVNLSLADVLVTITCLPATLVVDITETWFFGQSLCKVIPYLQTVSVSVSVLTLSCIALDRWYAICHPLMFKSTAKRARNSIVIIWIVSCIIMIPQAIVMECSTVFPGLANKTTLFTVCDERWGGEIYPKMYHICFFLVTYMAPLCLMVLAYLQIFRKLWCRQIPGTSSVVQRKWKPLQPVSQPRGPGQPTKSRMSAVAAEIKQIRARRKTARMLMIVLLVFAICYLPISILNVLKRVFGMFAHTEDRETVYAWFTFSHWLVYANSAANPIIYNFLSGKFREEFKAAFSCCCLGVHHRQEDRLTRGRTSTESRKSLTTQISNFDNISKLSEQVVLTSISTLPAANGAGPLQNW
# Sequence of human orexin-1 receptor (O43613 whole entry): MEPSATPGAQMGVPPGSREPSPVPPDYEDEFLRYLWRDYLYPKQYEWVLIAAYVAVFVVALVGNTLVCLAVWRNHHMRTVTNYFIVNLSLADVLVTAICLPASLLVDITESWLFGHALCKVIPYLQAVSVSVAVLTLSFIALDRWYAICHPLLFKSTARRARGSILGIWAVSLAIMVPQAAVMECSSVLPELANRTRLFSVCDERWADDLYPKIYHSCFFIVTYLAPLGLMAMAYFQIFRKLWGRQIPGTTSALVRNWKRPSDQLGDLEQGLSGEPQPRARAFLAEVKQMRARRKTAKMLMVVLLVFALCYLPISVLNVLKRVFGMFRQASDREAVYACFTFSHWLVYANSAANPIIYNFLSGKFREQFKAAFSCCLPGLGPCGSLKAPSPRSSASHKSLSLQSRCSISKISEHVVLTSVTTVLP
Compound,"pIC50 [1, 5]",pIC50 ([2]; compound incubation 120 min),further results
"COc1cccc(OC)c1[C@@H]1C[C@H](OC)C(=O)N1Cc1ccc(OC(F)(F)F)cc1 (racemic) [Example 254, rac-(3S*,5S*)-5-(2,6-dimethoxyphenyl)-3-methoxy-1-(4-(trifluoromethoxy)benzyl)pyrrolidin-2-one]",–,–,"pIC50 [1, 3]: 6.77; pIC50 [2, 4]: 6.72"
"COc1cccc(OC)c1[C@@H]1C[C@@H](Cl)C(=O)N1Cc1ccc(OC(F)(F)F)cc1 (racemic) [Example 257, rac-(3R*,5S*)-3-chloro-5-(2,6-dimethoxyphenyl)-1-(4-(trifluoromethoxy)benzyl)pyrrolidin-2-one]",–,–,"pIC50 [1, 3]: 6.25; pIC50 [2, 4]: 6.75"
"COc1cccc(OC)c1[C@@H]1C[C@H](Cl)C(=O)N1Cc1ccc(OC(F)(F)F)cc1 (racemic) [Example 261, rac-(3S*,5S*)-3-chloro-5-(2,6-dimethoxyphenyl)-1-(4-(trifluoromethoxy)benzyl)pyrrolidin-2-one]",–,–,"pIC50 [1, 3]: 7.39; pIC50 [2, 4]: 7.19"
"COc1cccc(OC)c1[C@@H]1C[C@@H](OC)C(=O)N1Cc1ccc(OC(F)(F)F)cc1 (racemic) [Example 262, rac-(3R*,5S*)-5-(2,6-dimethoxyphenyl)-3-methoxy-1-(4-(trifluoromethoxy)benzyl)pyrrolidin-2-one]",–,–,"pIC50 [1, 3]: 5.16; pIC50 [2, 4]: 5.47"
"CC[C@H]1C[C@@H](c2c(OC)cccc2OC)N(Cc2ccc(OC(F)(F)F)cc2)C1=O (racemic) [Example 263, rac-(3S*,5S*)-5-(2,6-dimethoxyphenyl)-3-ethyl-1-(4-(trifluoromethoxy)benzyl)pyrrolidin-2-one]",–,–,"pIC50 [1, 3]: 5.44; pIC50 [2, 4]: 6.21"
"O=C1[C@H](O)C[C@@H](c2cccc3c2OCCO3)N1Cc1ccc(OC(F)(F)F)cc1 (racemic) [Example 295, rac-(3R*,5S*)-5-(2,3-dihydrobenzo[b][1,4]dioxin-5-yl)-3-hydroxy-1-(4-(trifluoromethoxy)benzyl)pyrrolidin-2-one]",5.30,5.40,–
"COc1cc(F)ccc1[C@@H]1C[C@@H](O)C(=O)N1Cc1ccc(OC(F)(F)F)cc1 (racemic) [Example 296, rac-(3R*,5S*)-5-(4-fluoro-2-methoxyphenyl)-3-hydroxy-1-(4-(trifluoromethoxy)benzyl)pyrrolidin-2-one]",5.66,–,–
"COc1ccccc1[C@@H]1C[C@H](F)C(=O)N1Cc1ccc(OC(F)(F)F)cc1 (racemic) [Example 297, rac-(3S*,5S*)-3-fluoro-5-(2-methoxyphenyl)-1-(4-(trifluoromethoxy)benzyl)pyrrolidin-2-one]",6.25,5.98,–
"COc1ccccc1[C@@H]1C[C@H](Cl)C(=O)N1Cc1ccc(OC(F)(F)F)cc1 (racemic) [Example 298, rac-(3S*,5S*)-3-chloro-5-(2-methoxyphenyl)-1-(4-(trifluoromethoxy)benzyl)pyrrolidin-2-one]",6.05,5.79,–
"CCOc1ccccc1[C@@H]1C[C@@H](O)C(=O)N1Cc1ccc(OC(F)(F)F)cc1 (racemic) [Example 299, rac-(3R*,5S*)-5-(2-ethoxyphenyl)-3-hydroxy-1-(4-(trifluoromethoxy)benzyl)pyrrolidin-2-one]",6.77,5.73,–
"CCOc1ccccc1[C@@H]1C[C@H](F)C(=O)N1Cc1ccc(OC(F)(F)F)cc1 (racemic) [Example 300, rac-(3S*,5S*)-5-(2-ethoxyphenyl)-3-fluoro-1-(4-(trifluoromethoxy)benzyl)pyrrolidin-2-one]",7.01,–,–
"COc1cccc(F)c1[C@@H]1C[C@H](F)C(=O)N1Cc1ccc(OC(F)(F)F)cc1 (racemic) [Example 301, rac-(3S*,5S*)-3-fluoro-5-(2-fluoro-6-methoxyphenyl)-1-(4-(trifluoromethoxy)benzyl)pyrrolidin-2-one]",7.18,5.77,–
"COc1cccc(Cl)c1[C@@H]1C[C@H](F)C(=O)N1Cc1ccc(OC(F)(F)F)cc1 (racemic) [Example 302, rac-(3S*,5S*)-5-(2-chloro-6-methoxyphenyl)-3-fluoro-1-(4-(trifluoromethoxy)benzyl)pyrrolidin-2-one]",6.99,5.86,–
"COc1cc(F)ccc1[C@@H]1C[C@H](F)C(=O)N1Cc1ccc(OC(F)(F)F)cc1 (racemic) [Example 303, rac-(3S*,5S*)-3-fluoro-5-(4-fluoro-2-methoxyphenyl)-1-(4-(trifluoromethoxy)benzyl)pyrrolidin-2-one]",6.84,–,–
"CCOc1ccccc1[C@@H]1C[C@H](Cl)C(=O)N1Cc1ccc(OC(F)(F)F)cc1 (racemic) [Example 304, rac-(3S*,5S*)-3-chloro-5-(2-ethoxyphenyl-1-(4-(trifluoromethoxy)benzyl)pyrrolidin-2-one]",6.89,6.21,–
"COc1cccc(F)c1[C@@H]1C[C@H](Cl)C(=O)N1Cc1ccc(OC(F)(F)F)cc1 (racemic) [Example 305, rac-(3S*,5S*)-3-chloro-5-(2-fluoro-6-methoxyphenyl)-1-(4-(trifluoromethoxy)benzyl)pyrrolidin-2-one]",7.02,6.40,–

Compound,"pIC50 [1, 5]",pIC50 ([2]; compound incubation 120 min),further results
"CCOc1c(F)cccc1[C@@H]1C[C@@H](O)C(=O)N1Cc1ccc(OC(F)(F)F)cc1 (racemic) [Example 310, rac-(3R*,5S*)-5-(2-ethoxy-3-fluorophenyl)-3-hydroxy-1-(4-(trifluoromethoxy)benzyl)pyrrolidin-2-one]",5.77,–,–
"COc1ccc(F)c(OC)c1[C@@H]1C[C@@H](O)C(=O)N1Cc1ccc(OC(F)(F)F)cc1 (racemic) [Example 311, rac-(3R*,5S*)-5-(3-fluoro-2,6-dimethoxyphenyl)-3-hydroxy-1-(4-(trifluoromethoxy)benzyl)pyrrolidin-2-one]",6.13,–,–
"COc1c(F)ccc(F)c1[C@@H]1C[C@H](F)C(=O)N1Cc1ccc(OC(F)(F)F)cc1 (racemic) [Example 321, rac-(3S*,5S*)-5-(3,6-difluoro-2-methoxyphenyl)-3-fluoro-1-(4-(trifluoromethoxy)benzyl)pyrrolidin-2-one]",6.39,–,–
"CCOc1ccc(F)c(F)c1[C@@H]1C[C@@H](O)C(=O)N1Cc1ccc(OC(F)(F)F)cc1 (racemic) [Example 338, rac-(3R*,5S*)-5-(6-ethoxy-2,3-difluorophenyl)-3-hydroxy-1-(4-(trifluoromethoxy)benzyl)pyrrolidin-2-one]",7.24,–,–
"CC(C)Oc1cccc(F)c1[C@@H]1C[C@@H](O)C(=O)N1Cc1ccc(OC(F)(F)F)cc1 (racemic) [Example 394, rac-(3R*,5S*)-5-(2-fluoro-6-isopropoxyphenyl)-3-hydroxy-1-(4-(trifluoromethoxy)benzyl)pyrrolidin-2-one]",7.11,–,–
"COc1cccc(F)c1[C@@H]1C[C@@H](Cl)C(=O)N1Cc1ccc2oc3ccccc3c2c1 (racemic) [Example 396, rac-(3R*,5S*)-3-chloro-1-(dibenzo[b,d]furan-2-ylmethyl)-5-(2-fluoro-6-methoxyphenyl)pyrrolidin-2-one]",7.54,–,–
"COc1cccc(F)c1[C@@H]1C[C@H](Cl)C(=O)N1Cc1ccc2oc3ccccc3c2c1 (racemic) [Example 408, rac-(3S*,5S*)-3-chloro-1-(dibenzo[b,d]furan-2-ylmethyl)-5-(2-fluoro-6-methoxyphenyl)pyrrolidin-2-one]",8.30,–,–
"COc1cccc(OC)c1C1CCCC(=O)N1Cc1ccc2ccccc2n1 (stereo not drawn) [Example 4b, 6-(2,6-dimethoxyphenyl)-1-(quinolin-2-ylmethyl)piperidin-2-one]",–,5.85,–
"COc1cccc(OC)c1C1CCCC(=O)N1Cc1cnc(OC(F)F)c(C2CC2)c1 (stereo not drawn) [Example 70, 1-((5-cyclopropyl-6-(difluoromethoxy)pyridin-3-yl)methyl)-6-(2,6-dimethoxyphenyl)piperidin-2-one]",–,5.75,–
"COc1cccc(F)c1C1CCCC(=O)N1Cc1ccc(OC(F)(F)F)cc1 (stereo not drawn) [Example 220, 6-(2-fluoro-6-methoxyphenyl)-1-(4-(trifluoromethoxy)benzyl)piperidin-2-one]",–,–,"pIC50 [1, 3]: 6.81"
"CCOc1cccc(OCC)c1C1CCCC(=O)N1Cc1ccc(OC(F)(F)F)cc1 (stereo not drawn) [Example 231, 6-(2,6-diethoxyphenyl)-1-(4-(trifluoromethoxy)benzyl)piperidin-2-one]",–,–,"pIC50 [2, 4]: 6.26"
"CCOc1cccc(F)c1C1CC(C)C(=O)N1Cc1ccc(OC(F)(F)F)cc1 (stereo not drawn) [Example 370, 5-(2-ethoxy-6-fluorophenyl)-3-methyl-1-(4-(trifluoromethoxy)benzyl)pyrrolidin-2-one]",7.52,–,–
"CCOc1cccc(F)c1C1CC(C)C(=O)N1Cc1ccc(OC(F)F)cc1 (stereo not drawn) [Example 373, 1-(4-(difluoromethoxy)benzyl)-5-(2-ethoxy-6-fluorophenyl)-3-methylpyrrolidin-2-one]",7.19,–,–
"CCOc1cccc(CN2C(=O)C(C)CC2c2c(F)cccc2OCC)c1 (stereo not drawn) [Example 376, 5-(2-ethoxy-6-fluorophenyl)-1-(3-ethoxybenzyl)-3-methylpyrrolidin-2-one]",7.60,–,–
"CCCOc1ccc(CN2C(=O)C(C)CC2c2c(F)cccc2OCC)cc1 (stereo not drawn) [Example 377, 5-(2-ethoxy-6-fluorophenyl)-3-methyl-1-(4-propoxybenzyl)pyrrolidin-2-one]",–,–,pIC50 [1]: 7.02
"CCCOc1cccc(F)c1C1CC(C)C(=O)N1Cc1ccc(OC(F)(F)F)cc1 (stereo not drawn) [Example 415, 5-(2-fluoro-6-propoxyphenyl)-3-methyl-1-(4-(trifluoromethoxy)benzyl)pyrrolidin-2-one]",6.54,–,–
